# Laboratory results taken from PMC6095626, “Screening of the Pathogen Box for inhibitors with dual efficacy against Giardia lamblia and Cryptosporidium parvum” (PLoS Neglected Tropical Diseases, 2018).
# Assays:
# [1] = system: G. lamblia trophozoites (luciferase expressing, WBC6); assay: microbe, parasite or virus in culture; assay type: cell-based, Giardia lamblia; settings: initial Pathogen Box screen, single concentration 16 µM, inhibition compared to DMSO wells
# Method in brief: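 Luciferase-expressing WBC6 trophozoites plated at 250,000 cells/mL, compounds added 1:1, incubated anaerobically (GasPak bags) at 37 °C for 24 h; viability read by bioluminescence, with duplicate plates counted on a MOXI Z cell counter. Metronidazole control serially diluted 1:2 from 40 μM.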
# [2] = system: C. parvum (UGA1 Nluc expressing strain in HCT-8 cells); assay: microbe, parasite or virus in culture; assay type: cell-based, Cryptosporidium parvum; settings: for Crypto (10 uM) Mean % inhibition: initial Pathogen Box screen, single concentration 10 µM, inhibition compared to DMSO wells
# Method in brief: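 HCT-8 monolayers grown 48 h to 90–100% confluence, treated with compound at 10 μM or serial dilutions, then infected with bleach-treated UGA1 Nluc C. parvum oocysts.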
SMILES,Giardia (16 uM) Mean % inhibition [1],Crypto (10 uM) Mean % inhibition [2],"C. parvum cell growth inhibition in the initial screen ([2]; 10 μM, 48 hours) [%]"
CC(=O)N1CCN(c2ccc(Oc3ccc(Cl)cc3O)cc2)CC1 [MMV688330],X* (Mean or standard deviation are negative but not significantly different from the control to be a growth promoter),56%,
CC(Oc1cccc(Cl)c1)C(=O)Nc1ccc2oc(-c3ccncc3)nc2c1 (centres unmarked) [MMV688472],55%,X* (Mean or standard deviation are negative but not significantly different from the control to be a growth promoter),
Cc1ccc2nc(Cl)c(CNCc3cccs3)cc2c1 [MMV676439],70%,81%,
CCOc1ccccc1C(=O)Nc1cccc(-c2nc3ncccn3c2C)c1 [MMV019790],X* (Mean or standard deviation are negative but not significantly different from the control to be a growth promoter),X* (Mean or standard deviation are negative but not significantly different from the control to be a growth promoter),
Cc1ccc(NC(=O)c2cc(S(=O)(=O)NC(C)(C)C)ccc2C)nc1 [MMV020289],26%,X* (Mean or standard deviation are negative but not significantly different from the control to be a growth promoter),
COc1ccc(C2=NCCN2)cc1-c1cn(-c2cccc(C3=NCCN3)c2)nn1 [MMV688547],33%,45%,
COc1cc(C(F)(F)F)nc2ccc(C)c(N)c12 [MMV047015],65%,1.83%,
CN1CCN(c2nccc3nc(-c4ccc(F)c(F)c4)[nH]c23)CC1 [MMV676260],29%,33%,
COC(=O)c1cccc2oc(-c3cccc(OC)c3NC(=O)c3cc(-c4ccccc4)on3)nc12 [MMV676186],19%,28%,
CCc1ccc([C@@H]2C[C@H](C(F)(F)F)n3ncc(C(=O)NCc4ccc(OC)cc4)c3N2)cc1 [MMV687180],23%,X* (Mean or standard deviation are negative but not significantly different from the control to be a growth promoter),
CCOc1ccc2cc(-c3nn(C(C)(C)C)c(N)c3C(N)=O)cnc2c1 [MMV688853],X* (Mean or standard deviation are negative but not significantly different from the control to be a growth promoter),96%,≥ 95
COc1ccc(N(CCc2cccc(C)n2)C(C)=O)cc1 [MMV675995],26%,26%,
CCCn1c(NC(=O)c2ccc3ccccc3n2)nc2ccccc21 [MMV1030799],13%,81%,
O=C(Nc1nc(-c2ccccn2)cs1)C1CC1c1ccccc1F (centres unmarked) [MMV1028806],X* (Mean or standard deviation are negative but not significantly different from the control to be a growth promoter),91%,
OC[C@H]1O[C@@H](n2c3ccc(Cl)cc3c3c(-c4cc5ccccc5o4)ncnc32)C(O)[C@H]1O (some centres unmarked) [MMV688921],5.44%,51%,
NS(=O)(=O)c1cccc(-c2ccc3ncc(N4CCOCC4)nc3c2)c1 [MMV023860],27%,89%,
CNc1nnc(Sc2cnn(-c3ccccc3)c(=O)c2Cl)s1 [MMV688763],X* (Mean or standard deviation are negative but not significantly different from the control to be a growth promoter),49%,
COc1ccc(-c2onc(C(F)(F)F)c2-c2ccc(Cl)cc2)c(O)c1 [MMV688766],29%,X* (Mean or standard deviation are negative but not significantly different from the control to be a growth promoter),
CC(C)c1ncc(-c2ccncc2)c(C2CCC(CNC(=O)c3cccnc3)CC2)n1 (centres unmarked) [MMV676442],12%,74%,
CCOC(=O)NC(=O)c1ccsc1NC(=O)c1nc2ccccc2s1 [MMV090930],18%,59%,
O=C1O[C@@H](COc2ccon2)CN1c1cc(F)c(C2=CCN(Cc3ccccc3)CC2)c(F)c1 [MMV687813],32%,40%,
CCOc1ccccc1NC(C)C(=O)Nc1cc(C(F)(F)F)ccc1N1CCOCC1 (centres unmarked) [MMV407834],33%,X* (Mean or standard deviation are negative but not significantly different from the control to be a growth promoter),

SMILES,Giardia (16 uM) Mean % inhibition [1],Crypto (10 uM) Mean % inhibition [2],"C. parvum cell growth inhibition in the initial screen ([2]; 10 μM, 48 hours) [%]"
CCc1cc(=O)n(C)c(SC(C)C(=O)Nc2ccc(F)cc2)n1 (centres unmarked) [MMV688980],17%,X* (Mean or standard deviation are negative but not significantly different from the control to be a growth promoter),
Cc1cccc(Cn2ccc(NC(=O)c3ccc4c(c3)OCO4)n2)c1 [MMV676386],57%,53%,
CN(C)c1cc(NC(=O)Nc2ccccc2)c2ccccc2n1 [MMV006901],49%,X* (Mean or standard deviation are negative but not significantly different from the control to be a growth promoter),
Cc1cc(C2=NOC(c3cc(Cl)c(F)c(Cl)c3)(C(F)(F)F)C2)ccc1C(=O)NCc1ccc2c(c1)C(C)(C)OB2O (centres unmarked) [MMV687776],27%,83%,
COc1ccc(C2CC(c3cccs3)=NN2C(=O)c2ccco2)cc1OC (centres unmarked) [MMV019234],20%,X* (Mean or standard deviation are negative but not significantly different from the control to be a growth promoter),
COc1ccc(-c2cc(NC(=O)c3ccc(F)cc3Cl)ccc2OC)cc1 [MMV676526],87%,46%,
Cc1ccccc1CN1CCC(O)(c2ccc(Cl)c(C(F)(F)F)c2)CC1 [MMV688846],35%,X* (Mean or standard deviation are negative but not significantly different from the control to be a growth promoter),
c1ccc(Oc2ccc(-c3cc(C4CCOCC4)[nH]n3)cc2)cc1 [MMV687762],X* (Mean or standard deviation are negative but not significantly different from the control to be a growth promoter),68%,
Clc1ccc(-n2cc(COc3ccnc4ccccc34)nn2)cc1 [MMV675994],15%,94%,
COc1ccc(-c2cnc3ccc(N4CCCC4)nn23)cc1OC [MMV023985],X* (Mean or standard deviation are negative but not significantly different from the control to be a growth promoter),93%,
Cc1cc(NCC(C)C)c2[nH]nc(-c3ccccc3)c2n1 [MMV021375],62%,X* (Mean or standard deviation are negative but not significantly different from the control to be a growth promoter),
COc1ccccc1OCCCCn1c(C2CC2)nc2ccccc21 [MMV676474],3.27%,X* (Mean or standard deviation are negative but not significantly different from the control to be a growth promoter),
O=C(NCc1ccco1)N1CCN(Cc2ccc(Cl)s2)CC1 [MMV688555],34%,X* (Mean or standard deviation are negative but not significantly different from the control to be a growth promoter),
COC(=O)c1ccc(F)cc1NS(=O)(=O)c1cccc(-c2cnn(Cc3ccccc3)c2)c1 [MMV688350],-6%,53%,
COc1cccc(OC)c1C(=O)Nc1ccc(Cl)c(-c2nc3ccccc3s2)c1 [MMV676472],28%,X* (Mean or standard deviation are negative but not significantly different from the control to be a growth promoter),
CNC(=O)c1cc(S(=O)(=O)N2CCN(c3ccccn3)CC2)cs1 [MMV020136],X* (Mean or standard deviation are negative but not significantly different from the control to be a growth promoter),X* (Mean or standard deviation are negative but not significantly different from the control to be a growth promoter),
COCC(C)NC(=O)CSc1ncnc2sc(-c3ccccc3)cc12 (centres unmarked) [MMV676536],15%,X* (Mean or standard deviation are negative but not significantly different from the control to be a growth promoter),
c1cc(C2=NCCN2)cc(-c2cc(-c3ccc(C4=NCCN4)cc3)no2)c1 [MMV688361],38%,44%,
Cc1cc(OCC(=O)Nc2ccc(C(C)C)cc2)n(C)c(=O)c1C#N [MMV1198433],10%,52%,
CCOc1ccc(OCC(=O)Nc2cc(C)cc(C)c2)cc1 [MMV676470],12%,X* (Mean or standard deviation are negative but not significantly different from the control to be a growth promoter),
CS(=O)(=O)c1ccc(C(=O)N(CC2CCCO2)c2nc3ccccc3s2)cc1[N+](=O)[O-] (centres unmarked) [MMV688761],63%,77%,
c1ccc(-c2nc(NC3CCCCC3)cc(C3CC3)n2)nc1 [MMV021013],65%,92%,
